# Reference: EP4755881A1 (Wuhan Createrna Science and Technology Co., Ltd., priority 2023, dated 2025)
# Molecular target: hLPAR1 (human lysophosphatidic acid receptor 1, Accession No.: NM_001401.4) (Homo sapiens, UniProt Q92633)
# Experiment: cell-based
# Details: LPAR1 inhibitory activity IC50, Table 1; FLIPR method, CHO-K1 cells overexpressing hLPAR1
# Description: The antagonist properties of the compounds in the present disclosure were determined using the FLIPR (Fluorometric Imaging Plate Reader) method in CHO-K1 cells (Chinese Hamster Ovary cells K1, ATCC) overexpressing hLPAR1 (human lysophosphatidic acid receptor 1, Accession No.: NM_001401.4).
# CHO-K1 cells stably expressing hLPAR1 were placed in a cell culture incubator at 37°C with 5% CO2 and cultured in F-12 medium containing 10% FBS (fetal bovine serum, Gibco, 10099-141), 1% penicillin-streptomycin (Gibco, 15140-122), and 0.4 mg/mL Hygromycin B (Gibco, 10687010). 18-24 hours before the FLIPR experiment, the cells were seeded into a 96-well plate at a density of 250,000 cells/mL (25,000 cells/well) and incubated overnight in the cell culture incubator. On the day of the experiment, the medium was removed, and the cells were washed with FLIPR buffer (2.5 mM probenecid (Thermo, P36400), 1.3 mM CaCl2, 3.3 mM Na2CO3, 1 mM MgSO4, 20 mM HEPES (Invitrogen, 15630080), 1× HBSS (Invitrogen, 14065056), 0.1% BSA (BioSharp, 70080030)). 75 µL of […] Fluo-4 AM fluorescent dye (Thermo, F14202) was added to each well and incubated for 1.0 hour at 37°C for dye loading. The 96-well plate was then washed once with buffer, and 50 µL of buffer containing the test compound or vehicle was added to each well, followed by incubation at room temperature for 30 min. The cell plate was then placed into the FLIPR for baseline fluorescence measurement (excitation wavelength at 485 nm, emission wavelength at 525 to 535 nm). Subsequently, 50 µL/well of agonist (final concentration 1 µM oleoyl-L-α-lysophosphatidic acid sodium salt (Sigma, L7260)) or vehicle (ultrapure water) was added, and fluorescence values were measured at 1-second intervals for 2 min. Finally, the output fluorescence counts were analyzed using GraphPad Prism 9.0 software log(inhibitor) vs. response--Variable slope (four parameters) equation to calculate IC50 values.
# Table 1: Inhibitory activity data of compounds against LPAR1
# hLPAR1 (human lysophosphatidic acid receptor 1, Accession No.: NM_001401.4), sequence (Q92633 whole entry): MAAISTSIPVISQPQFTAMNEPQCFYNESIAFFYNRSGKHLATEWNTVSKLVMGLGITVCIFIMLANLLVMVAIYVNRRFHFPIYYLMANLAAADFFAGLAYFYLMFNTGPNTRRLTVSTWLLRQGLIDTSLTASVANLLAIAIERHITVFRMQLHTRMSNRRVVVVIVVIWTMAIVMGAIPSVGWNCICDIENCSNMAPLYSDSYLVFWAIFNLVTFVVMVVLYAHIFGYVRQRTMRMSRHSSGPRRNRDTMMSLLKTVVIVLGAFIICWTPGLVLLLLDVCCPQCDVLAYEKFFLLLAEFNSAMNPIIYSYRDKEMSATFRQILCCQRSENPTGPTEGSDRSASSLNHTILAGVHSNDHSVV
row,Compound,IC50
1,Cc1nc(-c2nnn(C)c2NC(=O)OC(C)C2CC2(F)F)ccc1C#CC1(CC(=O)O)CC1 (centres unmarked) [compound 081],174 nM
2,Cc1nc(-c2nnn(C)c2CNC(=O)OCc2cc(F)cnc2Cl)ccc1C#CC1(CC(=O)O)CC1 [compound 117],79.4 nM

# Same assay, conditions: Table 1; FLIPR method, CHO-K1 cells overexpressing hLPAR1; read-out: LPAR1 inhibitory activity IC50
row,Compound,IC50
1,"Cc1nc(-c2cnn(C)c2NC(=O)O[C@H](C)c2ccccc2Cl)ccc1C#CC1(CC(=O)O)CC1 [compound 005, (R)-2-(1-((6-(5-(((1-(2-chlorophenyl)ethoxy)carbonyl)amino)-1-methyl-1H-pyrazol-4-yl)-2-methylpyridin-3-yl)ethynyl)cyclopropyl)acetic acid]",22.6 nM
2,"Cc1nc(-n2nnc(C)c2NC(=O)O[C@H](C)c2ccccc2Cl)ccc1C#CC1(CC(=O)O)CC1 [compound 006, (R)-2-(1-((6-(5-(((1-(2-chlorophenyl)ethoxy)carbonyl)amino)-4-methyl-1H-1,2,3-triazol-1-yl)-2-methylpyridin-3-yl)ethynyl)cyclopropyl)acetic acid]",42 nM
3,"CCCC(C)OC(=O)Nc1c(-c2ccc(C#CC3(CC(=O)O)CC3)c(C)n2)nnn1C (centres unmarked) [compound 010, 2-(1-((2-methyl-6-(1-methyl-5-(((pentan-2-yloxy)carbonyl)amino)-1H-1,2,3-triazol-4-yl)pyridin-3-yl)ethynyl)cyclopropyl)acetic acid]",56.2 nM
4,"Cc1nc(-c2nnn(C)c2NC(=O)O[C@H](C)c2ccccc2Cl)ccc1C#CC1(CC(=O)O)CC1 [compound 013, (R)-2-(1-((6-(5-(((1-(2-chlorophenyl)ethoxy)carbonyl)amino)-1-methyl-1H-1,2,3-triazol-4-yl)-2-methylpyridin-3-yl)ethynyl)cyclopropyl)acetic acid]",2.6 nM
5,"Cc1nc(-c2nnn(C)c2NC(=O)O[C@H](C)c2ccccc2F)ccc1C#CC1(CC(=O)O)CC1 [compound 014, (R)-2-(1-((6-(5-(((1-(2-fluorophenyl)ethoxy)carbonyl)amino)-1-methyl-1H-1,2,3-triazol-4-yl)-2-methylpyridin-3-yl)ethynyl)cyclopropyl)acetic acid]",7.7 nM
6,"Cc1nc(-c2nnn(C)c2COC(=O)N(C)C2CCCC2)ccc1C#CC1(CC(=O)O)CC1 [compound 018, 2-(1-((6-(5-(((cyclopentyl(methyl)carbamoyl)oxy)methyl)-1-methyl-1H-1,2,3-triazol-4-yl)-2-methylpyridin-3-yl)ethynyl)cyclopropyl)acetic acid]",55.2 nM
7,"Cc1nc(-c2nnn(C)c2NC(=O)O[C@H](C)c2ccccc2)ccc1C#CC1(CC(=O)O)CC1 [compound 022, (R)-2-(1-((2-methyl-6-(1-methyl-5-(((1-phenylethoxy)carbonyl)amino)-1H-1,2,3-triazol-4-yl)pyridin-3-yl)ethynyl)cyclopropyl)acetic acid]",9.5 nM
8,"Cc1nc(-c2nnn(C)c2NC(=O)OC(C)c2cc(F)cnc2Cl)ccc1C#CC1(CC(=O)O)CC1 (centres unmarked) [compound 023, 2-(1-((6-(5-(((1-(2-chloro-5-fluoropyridin-3-yl)ethoxy)carbonyl)amino)-1-methyl-1H-1,2,3-triazol-4-yl)-2-methylpyridin-3-yl)ethynyl)cyclopropyl)acetic acid]",45.2 nM
9,"Cc1nc(-c2nnn(C)c2NC(=O)OC(C)C2CC(F)(F)C2)ccc1C#CC1(CC(=O)O)CC1 (centres unmarked) [compound 029, 2-(1-((6-(5-(((1-(3,3-difluorocyclobutyl)ethoxy)carbonyl)amino)-1-methyl-1H-1,2,3-triazol-4-yl)-2-methylpyridin-3-yl)ethynyl)cyclopropyl)acetic acid]",219 nM
10,Cc1nc(-c2nnn(C)c2COC(=O)N(C)CC2CCC(F)(F)C2)ccc1C#CC1(CC(=O)O)CC1 (centres unmarked) [compound 094],30.1 nM
11,Cc1nc(-c2nnn(C)c2COC(=O)N(C)CC2CCCC2(F)F)ccc1C#CC1(CC(=O)O)CC1 (centres unmarked) [compound 095],39.9 nM
12,Cc1nc(-c2nnn(C)c2COc2nccc(C3CCC3)n2)ccc1C#CC1(CC(=O)O)CC1 [compound 194],42.5 nM

# More lines, now with the values ahead:
row,IC50,Compound
1,52.7 nM,"Cc1nc(-c2nnn(C)c2COC(=O)N(C)CC2CCC2(F)F)ccc1C#CC1(CC(=O)O)CC1 (centres unmarked) [compound 026, 2-(1-((6-(5-(((((2,2-difluorocyclobutyl)methyl)(methyl)carbamoyl)oxy)methyl)-1-methyl-1H-1,2,3-triazol-4-yl)-2-methylpyridin-3-yl)ethynyl)cyclopropyl)acetic acid]"
2,33.6 nM,"Cc1nc(-c2nnn(C)c2COC(=O)N(C)[C@H](C)C2CC2)ccc1C#CC1(CC(=O)O)CC1 [compound 030, (R)-2-(1-((6-(5-((((1-cyclopropylethyl)(methyl)carbamoyl)oxy)methyl)-1-methyl-1H-1,2,3-triazol-4-yl)-2-methylpyridin-3-yl)ethynyl)cyclopropyl)acetic acid]"
3,52.7 nM,"Cc1nc(-c2nnn(C)c2COC(=O)N(C)CCCCF)ccc1C#CC1(CC(=O)O)CC1 [compound 034, 2-(1-((6-(5-((((4-fluorobutyl)(methyl)carbamoyl)oxy)methyl)-1-methyl-1H-1,2,3-triazol-4-yl)-2-methylpyridin-3-yl)ethynyl)cyclopropyl)acetic acid]"
4,103 nM,"CCC(F)CN(C)C(=O)OCc1c(-c2ccc(C#CC3(CC(=O)O)CC3)c(C)n2)nnn1C (centres unmarked) [compound 036, 2-(1-((6-(5-((((2-fluorobutyl)(methyl)carbamoyl)oxy)methyl)-1-methyl-1H-1,2,3-triazol-4-yl)-2-methylpyridin-3-yl)ethynyl)cyclopropyl)acetic acid]"
5,105 nM,"Cc1nc(-c2nnn(C)c2COC(=O)N(C)CCC(C)F)ccc1C#CC1(CC(=O)O)CC1 (centres unmarked) [compound 037, 2-(1-((6-(5-((((3-fluorobutyl)(methyl)carbamoyl)oxy)methyl)-1-methyl-1H-1,2,3-triazol-4-yl)-2-methylpyridin-3-yl)ethynyl)cyclopropyl)acetic acid]"
6,51.1 nM,"Cc1nc(-c2nnn(C)c2COC(=O)N(C)CCC(C)(F)F)ccc1C#CC1(CC(=O)O)CC1 [compound 038, 2-(1-((6-(5-((((3,3-difluorobutyl)(methyl)carbamoyl)oxy)methyl)-1-methyl-1H-1,2,3-triazol-4-yl)-2-methylpyridin-3-yl)ethynyl)cyclopropyl)acetic acid]"
7,4.2 nM,"Cc1nc(-c2nnn(C)c2COC(=O)N(C)CC2CCCC2)ccc1C#CC1(CC(=O)O)CC1 [compound 039, 2-(1-((6-(5-((((cyclopentylmethyl)(methyl)carbamoyl)oxy)methyl)-1-methyl-1H-1,2,3-triazol-4-yl)-2-methylpyridin-3-yl)ethynyl)cyclopropyl)acetic acid]"
8,129 nM,Cc1nc(-c2nnn(C)c2COC(=O)N(C)CC2CC2(F)F)ccc1C#CC1(CC(=O)O)CC1 (centres unmarked) [compound 068]
9,79.1 nM,Cc1nc(-c2nnn(C)c2COC(=O)N(C)CC2CC2C)ccc1C#CC1(CC(=O)O)CC1 (centres unmarked) [compound 073]
10,157 nM,CCC(F)(F)CN(C)C(=O)OCc1c(-c2ccc(C#CC3(CC(=O)O)CC3)c(C)n2)nnn1C [compound 082]
11,44.3 nM,CCCCN(C)C(=O)OCc1c(-c2ccc(C#CC3(CC(=O)O)CC3)c(CC)n2)nnn1C [compound 100]

# Same assay, conditions: read-out: LPAR1 inhibitory activity IC50; Table 1; FLIPR method, CHO-K1 cells overexpressing hLPAR1
row,Compound,IC50
1,Cc1nc(-c2nnn(C)c2COC(=O)N(C)CC2CCC2)ccc1C#CC1(CC(=O)O)CC1 [compound 017],42.8 nM
